Assay results: patent publication EP4692071A1, “PHOTOCHROMIC COMPOUND, NAPHTHOL DERIVATIVE, CURABLE COMPOSITION, OPTICAL ARTICLE, LENS, AND EYEGLASS” (TOKUYAMA CORPORATION, priority 2023, dated 2024)
Several values for one entry are separate records, joined by “and”; a condition that tells them apart may be missing. Equal entries are not always repeated.

Tests used:
Format in all cases: physicochemical
[1] = Maximum absorption wavelength (λmax) after color development, spectrophotometer MCPD3000; details: for Maximum absorption wavelength: after color development
Method: (§1) • [1] Maximum Absorption Wavelength (λmax): The maximum absorption wavelength after color development, measured using a spectrophotometer (instantaneous multichannel photodetector MCPD3000) manufactured by Otsuka Electronics Co., Ltd. was used as an indicator for the color tone during the color development. • [2] 23°C Color Optical Density (A23): A difference between an absorbancy measured after light irradiation at 23°C for 240 seconds {ε(240)} and an absorbancy without light irradiation ε(0) at the maximum absorption wavelength was used as an indicator for the color optical density. […] 35°C Color Optical Density (A35): A difference between an absorbancy measured after light irradiation at 35°C for 240 seconds {ε(240)} and an absorbancy without light irradiation ε(0) at the first and second absorption wavelengths was used as an indicator for the color optical density. […] 23°C color fading half-life [τ1/2 (sec.)]: A time required for the absorbancy of the sample at the maximum absorption wavelength to decrease to 1/2 of {ε(240)-ε(0)} when the light irradiation is terminated after the light irradiation at 23°C for 240 seconds, was used as an indicator for the color fading speed. The shorter this time, the higher the color fading speed. • [6] Residual rate (A90/A0×100): The obtained photochromic plastic lens was subjected to accelerated deterioration using a xenon weather meter X25 manufactured by Suga Test Instruments Co., Ltd. for 90 hours. Subsequently, the color optical density was evaluated before and after the test, then a color optical density before the test (A0) and a color optical density after the test (A90) were measured, and a ratio (A90/A0) was defined as a residual rate. The residual rate was used as an indicator for a color developing durability. The higher the residual rate, the higher the color developing durability.

[2] = 23°C color optical density (A23): absorbancy difference ε(240)-ε(0) after 240 s light irradiation at 23°C; details: 240 s irradiation
Method: as §1

[3] = 35°C color optical density (A35): absorbancy difference ε(240)-ε(0) after 240 s light irradiation at 35°C; details: 240 s irradiation
Method: as §1

[4] = High-temperature color development rate (A35/A23×100), temperature dependency
Method: as §1

[5] = Residual rate (A90/A0×100) after 90 h accelerated deterioration in xenon weather meter X25, color developing durability; details: for Residual rate (%): xenon weather meter 90 hours; for Residual rate: after 90 h accelerated deterioration
Method: as §1

[6] = cured product by kneading method, 1 mm
[7] = photochromic laminate by coating method
[8] = photochromic cured product, thickness 1 mm (kneading method)
[9] = photochromic laminate prepared by coating method

Structure (SMILES)	Maximum absorption wavelength ([1]; binder sheet (binder method)) [nm]	Maximum absorption wavelength [1, 8] [nm]	Maximum absorption wavelength [1, 9]	A35/A23 *100 ([4]; binder sheet (binder method)) [%]	A35/A23 *100 [4, 8] [%]	A35/A23 *100 [4, 9]	Residual rate ([5]; binder sheet (binder method)) [%]	Residual rate [5, 8] [%]	Residual rate [5, 9] [%]	other results
COc1ccc(C2(c3ccc(OC)cc3)C=Cc3c4c(c5cc(N(C)c6ccccc6)c(OC)cc5c3O2)-c2ccccc2C4(C)C)cc1 [Example 1 Formula (28)]	–	–	–	–	–	–	–	–	–	Maximum absorption wavelength (nm) ([1]; binder sheet (binder method), urethaneurea resin photochromic layer between polycarbonate sheets, 0.25 mmol per 100 parts by mass resin): 501 nm; Maximum absorption wavelength (nm) ([1]; photochromic cured product by kneading method, 1 mm thick thiourethane, 0.106 mmol per 100 g monomers): 505 nm; Maximum absorption wavelength (nm) ([1]; photochromic laminate by coating method, 40 µm photochromic layer on thiourethane lens, 0.25 mmol compound per 100 g monomers): 501 nm; A23 (-) ([2]; binder sheet (binder method)): 1.17 -; A23 (-) [2, 6]: 1.19 -; A23 (-) ([2]; photochromic laminate by coating method, at the maximum absorption wavelength): 1.15 -; A35 (-) ([3]; binder sheet (binder method)): 0.80 -; A35 (-) [3, 6]: 0.83 -; A35 (-) [3, 7]: 0.79 -; A35/A23 *100 (%) ([4]; binder sheet (binder method)): 69%; A35/A23 *100 (%) [4, 6]: 70%; A35/A23 *100 (%) [4, 7]: 69%; Residual rate (%) ([5]; binder sheet (binder method)): 95%; Residual rate (%) [5, 6]: 89%; Residual rate (%) [5, 7]: 83%
COc1ccc(C2(c3ccc(OC)cc3)C=Cc3c4c(c5cc(N6CCc7ccccc76)c(OC)cc5c3O2)-c2ccccc2C4(C)C)cc1 [Formula (28A)]	532	536	532 nm	74	75	74%	88	79	74	–
CCCOc1ccc(C2(c3ccc(OCCC)cc3)C=Cc3c4c(c5cc(N6CCc7ccccc76)c(OC)cc5c3O2)-c2ccc(-c3ccc(C)cc3)cc2C42CCCCCCC2)cc1 [Formula (35A)]	531	535	531 nm	78	80	78%	90	80	75	–
COCCCC1(CCCOC)c2ccccc2-c2c1c1c(c3cc(OC)c(N4CC(C)c5ccccc54)cc23)OC(c2ccc(OC)cc2)(c2ccc(OC)cc2)C=C1 (stereo not drawn) [Formula (39A)]	533	537	533 nm	75	76	75%	85	76	71	–
CCC1(CC)c2cc(C)ccc2-c2c1c1c(c3cc(C)c(N4CCc5ccccc54)cc23)OC(c2ccc(C)cc2)(c2ccc(OC)cc2)C=C1 (stereo not drawn) [Formula (42A)]	535	539	535 nm	75	76	75%	85	75	70	–
COc1ccc(C2(c3ccc(N4CCOCC4)cc3)C=Cc3c4c(c5cc(N6CCc7ccccc76)c(C)cc5c3O2)-c2ccc(OC)cc2C4(CCCC(F)(F)F)CCCC(F)(F)F)cc1 (stereo not drawn) [Formula (45A)]	–	–	489 nm and 596 nm	–	–	67%	–	–	65	–
CCCCCCOc1ccc(C2(c3ccc(OCCCCCC)cc3)C=Cc3c4c(c5cc(N6CCc7cc(OC)ccc76)c(OC)cc5c3O2)-c2ccc(-c3ccc(C(F)(F)F)cc3)cc2C42CC(C)(C)CC(C)(C)C2)cc1 [Formula (48A)]	539	–	539 nm	62	–	62%	84	–	69	–
COCCOCCOCCC1(CCOCCOCCOC)c2ccccc2-c2c1c1c(c3cc(OC)c(N4CCc5cc(F)ccc54)cc23)OC(c2ccc(OC)cc2)(c2ccc(OC)cc2)C=C1 [Formula (50A)]	522	526	522 nm	70	71	70%	84	76	70	–
COc1ccc(C2(c3ccc(OC)cc3)C=Cc3c4c(c5cc(N6CCc7cc(C)ccc76)c(OC)cc5c3O2)-c2ccccc2C4(C)C)cc1 [Formula (52A)]	535	539	535 nm	75	76	75%	92	82	76	–
CCC1(CC)CCC2(CC1)c1cc(OC(F)(F)F)ccc1-c1c2c2c(c3cc(OC)c(N4CCc5ccccc54)cc13)OC(c1ccc(OC)cc1)(c1ccc(OCCCO[Si](C)(C)CC[Si](O[Si](C)(C)C)(O[Si](C)(C)C)O[Si](C)(C)C)cc1)C=C2 (stereo not drawn) [Formula (74A)]	522	526	522 nm	64	65	64%	83	77	72	–

Second part, led by results:

Maximum absorption wavelength ([1]; binder sheet (binder method)) [nm]	Maximum absorption wavelength [1, 8] [nm]	Maximum absorption wavelength [1, 9]	A35/A23 *100 ([4]; binder sheet (binder method)) [%]	A35/A23 *100 [4, 8] [%]	A35/A23 *100 [4, 9]	Residual rate ([5]; binder sheet (binder method)) [%]	Residual rate [5, 8] [%]	Residual rate [5, 9] [%]	Structure (SMILES)	other results
–	–	592 nm and 486 nm	–	–	66% and 67%	–	–	69	CCCOc1ccc(C2(c3ccc(OCCC)cc3)C=Cc3c4c(c5cc(N6CCc7cc(C(F)(F)F)ccc76)c(OC)cc5c3O2)-c2ccccc2C4(CCC)CCC)cc1 [Formula (54A)]	–
548	–	548 nm	70	–	70%	80	–	65	COc1ccc(C2(c3ccc(N(c4ccccc4)c4ccccc4)cc3)C=Cc3c4c(c5cc(N6CCc7ccccc76)c(OC)cc5c3O2)-c2ccccc2C42CCC3(CCCCC3)CC2)cc1 (stereo not drawn) [Formula (57A)]	–
–	–	535 nm and 595 nm	–	–	71%	–	–	69	CCC1(CC)CCC2(CC1)c1cc(-c3ccccc3)ccc1-c1c2c2c(c3cc(OC)c(N4CCc5ccccc54)cc13)OC(c1ccc(C)cc1)(c1ccc(N(C)c3ccccc3)cc1)C=C2 (stereo not drawn) [Formula (60A)]	–
527	531	527 nm	66	67	66%	83	75	73	COc1ccc(C2(c3ccc(OC)c(OC)c3)C=Cc3c4c(c5cc(N6CCc7ccccc76)c(OC)cc5c3O2)-c2ccccc2C4(CCC(F)(F)F)CCC(F)(F)F)cc1 (stereo not drawn) [Formula (67A)]	–
535	540	536 nm	77	78	77%	82	77	71	CCCC1(C)c2cc(Oc3ccccc3)ccc2-c2c1c1c(c3cc(OC)c(N4CCc5ccccc54)cc23)OC(c2ccc(OC)cc2)(c2ccc3c(c2)CCO3)C=C1 (stereo not drawn) [Formula (70A)]	–
523	–	524 nm	68	–	68%	82	–	64	CCCOc1ccc(C2(c3ccc(OC)cc3)C=Cc3c4c(c5cc(N6CCc7ccccc76)c(C)cc5c3O2)-c2ccc(-c3ccc(F)c(F)c3F)cc2C4(CCCCOC)CCCCOC)cc1F (stereo not drawn) [Formula (78A)]	–
522	526	522 nm	72	73	71%	84	74	71	COc1ccc(C2(c3ccc(OC)cc3)C=Cc3c4c(c5cc(N6CCc7ccccc76)c(-c6ccc(OC)cc6OC)cc5c3O2)-c2ccccc2C4(C)C)cc1 [Formula (I), reference compound]	–
